# Reference: patent US20230094176A1, “COMPOUNDS AND METHODS FOR IMPROVING IMPAIRED ENDOGENOUS FIBRINOLYSIS USING HISTONE DEACETYLASE INHIBITORS” (Cereno Scientific AB, priority 2011, published 2023)
# Where two headings read alike, the source gives them in different places.
# Tests used:
# [1] = cited from earlier work
# [2] = tested on: t-PA mRNA in HUVECs; assay: C100: dose giving a 100% increase of t-PA mRNA in HUVEC (24 h); format: cell-based, human
# Procedure: HUVECs are treated with different concentrations of first generation hydroxamates (TSA), second generation hydroxamates (Givinostat, Vorinostat, Belinostat, Panobinostat, SB939, PCI24781), benzamides (Mocetinostat, Entinostat) or short chain fatty acids (SCFA, Butyrate, Phenylbutyrate) for 24 h and t-PA mRNA was measured. The doses giving a 100% increase of t-PA mRNA (C100) was determined and compared to the maximum plasma concentration (Cmax) achieved when the maximum tolerated dose (MTD) of each substance is administered to humans, by dividing the C100 with the Cmax. […] In the table below the values for MTD and Cmax are from the following references (mentioned in the same order as in the table): Steele, N. L. et al Cancer Chemother Pharmacol 67(6):1273-9 (2011), Kelly, K. K. et al J Clin Oncol 23:3923-3931 (2005), Furlan, A. et al Mol Med 17(5-6) 353-362 (2011), Fukutomi, A. et al Invest New Drugs 2011 Apr. 12, Yong, W. P. et al Ann Oncol 22(11) 2516-22 (2011), Garcia-Manero, G. et al. Blood 112: 981-989 (2008), Ryan, Q. C. et al J Clin Oncol 23(17): 3912-3922 (2005), Edelman, M. J. et al Cancer Chemother Pharmacol 51: 439-444, http://www.drugs.com/pro/buphenyl.html *Butyrate was administered in the prodrug form tributyrin.
# [3] = tested on: TNF-a suppressed t-PA mRNA in HUVECs; assay: TNF-alpha suppression of t-PA mRNA in HUVEC: anti-inflammatory substances versus Givinostat; format: cell-based, human
# Procedure: HUVECs were treated with TNF-alpha (TNF-a) for 1 h and then optimal concentrations of the anti.inflammatory substances acetylsalicylic acid (ASA, 1 mM) and ibuprofen (IBU, 1 mM) was added. Givinostat was also added to the cells for comparison. Cells were harvested and t-PA mRNA levels analysed according to example 1.
# [4] = tested on: t-PA mRNA in endothelial cells; assay: VPA dose-response on t-PA in the absence or presence of high TNF-alpha (10 ng/ml); format: cell-based, human
# Procedure: In an attempt to mimic the potentially highly inflamed conditions in the local microenvironment surrounding an atherosclerotic plaque, endothelial cells were exposed to a high concentration (10 ng/ml) of TNF-alpha for 24 hours and then VPA was added for an additional 24 h. Cells were treated and mRNA prepared as described in example 1.
# [5] = tested on: patients with epilepsy; settings: cited from earlier work
# [6] = maximum plasma concentration when the MTD is administered to humans
smiles,measurement,setting,value
O=C(/C=C/c1cccc(S(=O)(=O)Nc2ccccc2)c1)NO [Belinostat],MTD,"[1]; bidaily, oncology treatment or trials",1000 mg bidaily
same,Cmax,[1]; [6],4000 nM
same,Cmax (ng/ml),[1]; [6],~1400 ng/mL
same,C100 tPA,[2],0.2 µM
CCN(CC)Cc1ccc2cc(COC(=O)Nc3ccc(C(=O)NO)cc3)ccc2c1.Cl [Givinostat],MTD,"[1]; humans, literature",200 mg
same,Cmax,[1]; [6],650 nM
same,Cmax (ng/ml),[1]; [6],300 ng/mL
same,MTD,"[1]; once daily, in healthy volunteers",200 mg once daily
same,C100 tPA,[2],0.05 µM
same,increase of t-PA,[3]; HUVEC treated with TNF-a,9 fold
same,effect on TNF-a mediated suppression of t-PA expression,"[3]; HUVEC, TNF-a 1 h then substance, ASA 1 mM, IBU 1 mM",completely reverse
Nc1ccccc1NC(=O)c1ccc(CNc2nccc(-c3cccnc3)n2)cc1 [Mocetinostat],Cmax,[1]; in vivo,500 nM
same,Cmax (ng/ml),[1]; in vivo,200 ng/mL
same,C100 tPA,[2],0.1 µM
"CCCC(CCC)C(=O)O [VPA, valproic acid]",maximum efficacy in inducing t-PA,[4]; TNF-alpha (10 ng/ml) treated cells,about 50 fold
same,maximum efficacy in inducing t-PA,[4]; control cells (no TNF-alpha),about 10 fold
same,lowering of the risk of atherothrombotic events,[5]; patients with epilepsy (Olesen et al 2010),up to 40%
same,plasma levels typically obtained during anticonvulsive treatment,"[5]; patients, anticonvulsive VPA treatment",350000 to 850000 nM
O=C(CCCCCCC(=O)Nc1ccccc1)NO [Vorinostat],MTD,"[1]; humans, literature",200 mg b.i.d
same,Cmax (ng/ml),[1]; in vivo,300 ng/mL
same,Cmax,[1]; [6],1100 nM
same,MTD,"[1]; once daily, oncology treatment or trials",400 mg once daily
same,C100 tPA,[2],0.1 µM
